Target: T1, dopamine D2 receptor (Homo sapiens, UniProt P14416)
T1 construct: expressed in transfected cells
Assay: Dopamine D2 receptor binding assay (displacement of [125I]-iodospiperone)
Conditions: saturation binding experiments, HEK293 D2 membranes
Description: 1. […] The pellets were stored at −80° C. until use. […] (Beckman Ultrazentrifuge XL 80). […] 2. Receptor Binding Experiments
b) Dopamine D2 Receptor Binding Assay
Non-specific binding was defined with 1 μM haloperidol.

T1 sequence (P14416 whole entry): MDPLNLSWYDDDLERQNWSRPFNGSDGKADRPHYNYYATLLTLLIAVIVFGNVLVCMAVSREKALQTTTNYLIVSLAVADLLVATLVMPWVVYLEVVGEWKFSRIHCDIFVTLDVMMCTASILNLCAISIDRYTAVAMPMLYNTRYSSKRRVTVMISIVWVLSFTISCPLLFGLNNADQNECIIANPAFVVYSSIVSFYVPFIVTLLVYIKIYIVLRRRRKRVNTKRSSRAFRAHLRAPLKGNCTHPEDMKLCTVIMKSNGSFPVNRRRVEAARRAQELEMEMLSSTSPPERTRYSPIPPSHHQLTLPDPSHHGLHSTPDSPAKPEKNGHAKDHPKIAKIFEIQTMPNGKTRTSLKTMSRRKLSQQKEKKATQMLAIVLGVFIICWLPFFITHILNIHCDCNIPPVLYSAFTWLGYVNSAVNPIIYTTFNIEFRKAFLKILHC

Substance: iodospiperone [[^125I]-iodospiperone]
- Kd: 0.22 nM

From US8710059B2, “N-phenyl-(homo)piperazinyl-benzenesulfonyl or benzenesulfonamide compounds suitable for treating disorders that respond to the modulation of the serotonin 5-HT6 receptor” (Abbott Laboratories, priority 2010, dated 2014)
